Experimental data published in PMC6787515 (Journal of Cellular and Molecular Medicine, 2019).
In brackets after ≈: the same amount, converted by molar mass.

Experiments:
Type in all cases: biochemical, Staphylococcus aureus
[1] = target: T1, β‐lactamase N1; assay: nitrocefin hydrolysis assay, purified recombinant enzyme
T1 construct: gene rnjB

[2] = target: T1, β‐lactamase N1; assay: nitrocefin hydrolysis assay, purified mutant enzyme
[3] = target: T1, β‐lactamase N1; assay: as above; remark: listed apart in the source

O=C(O[C@@H]1Cc2c(O)cc(O)cc2O[C@@H]1c1cc(O)c(=O)c2c(O)c(O)cc([C@H]3Oc4cc(O)cc(O)c4C[C@H]3OC(=O)c3cc(O)c(O)c(O)c3)c2c1)c1cc(O)c(O)c(O)c1 [TFDG, Theaflavin‐3,3´‐digallate]
IC50 [1]: 5.82 µg/mL | IC50 [2]: 28.91 µg/mL (≈ 33.3 µM) | IC50 [3]: 30.13 µg/mL (≈ 34.7 µM)
